Reference: PMC9136259 (Food Chemistry: X, 2022)

Legend:
[1] = target: T1, xanthine oxidase (XOD, from bovine milk) (Bos taurus, UniProt P80457); experiment: intrinsic fluorescence quenching; format: binding; conditions: 0.2 M PBS pH 7.5; 298, 304 and 310 K; static quenching
[2] = target: T1, xanthine oxidase (XOD, from bovine milk); experiment: xanthine oxidation, absorbance at […] nm, microplate; format: biochemical

T1 sequence (P80457 2-1332): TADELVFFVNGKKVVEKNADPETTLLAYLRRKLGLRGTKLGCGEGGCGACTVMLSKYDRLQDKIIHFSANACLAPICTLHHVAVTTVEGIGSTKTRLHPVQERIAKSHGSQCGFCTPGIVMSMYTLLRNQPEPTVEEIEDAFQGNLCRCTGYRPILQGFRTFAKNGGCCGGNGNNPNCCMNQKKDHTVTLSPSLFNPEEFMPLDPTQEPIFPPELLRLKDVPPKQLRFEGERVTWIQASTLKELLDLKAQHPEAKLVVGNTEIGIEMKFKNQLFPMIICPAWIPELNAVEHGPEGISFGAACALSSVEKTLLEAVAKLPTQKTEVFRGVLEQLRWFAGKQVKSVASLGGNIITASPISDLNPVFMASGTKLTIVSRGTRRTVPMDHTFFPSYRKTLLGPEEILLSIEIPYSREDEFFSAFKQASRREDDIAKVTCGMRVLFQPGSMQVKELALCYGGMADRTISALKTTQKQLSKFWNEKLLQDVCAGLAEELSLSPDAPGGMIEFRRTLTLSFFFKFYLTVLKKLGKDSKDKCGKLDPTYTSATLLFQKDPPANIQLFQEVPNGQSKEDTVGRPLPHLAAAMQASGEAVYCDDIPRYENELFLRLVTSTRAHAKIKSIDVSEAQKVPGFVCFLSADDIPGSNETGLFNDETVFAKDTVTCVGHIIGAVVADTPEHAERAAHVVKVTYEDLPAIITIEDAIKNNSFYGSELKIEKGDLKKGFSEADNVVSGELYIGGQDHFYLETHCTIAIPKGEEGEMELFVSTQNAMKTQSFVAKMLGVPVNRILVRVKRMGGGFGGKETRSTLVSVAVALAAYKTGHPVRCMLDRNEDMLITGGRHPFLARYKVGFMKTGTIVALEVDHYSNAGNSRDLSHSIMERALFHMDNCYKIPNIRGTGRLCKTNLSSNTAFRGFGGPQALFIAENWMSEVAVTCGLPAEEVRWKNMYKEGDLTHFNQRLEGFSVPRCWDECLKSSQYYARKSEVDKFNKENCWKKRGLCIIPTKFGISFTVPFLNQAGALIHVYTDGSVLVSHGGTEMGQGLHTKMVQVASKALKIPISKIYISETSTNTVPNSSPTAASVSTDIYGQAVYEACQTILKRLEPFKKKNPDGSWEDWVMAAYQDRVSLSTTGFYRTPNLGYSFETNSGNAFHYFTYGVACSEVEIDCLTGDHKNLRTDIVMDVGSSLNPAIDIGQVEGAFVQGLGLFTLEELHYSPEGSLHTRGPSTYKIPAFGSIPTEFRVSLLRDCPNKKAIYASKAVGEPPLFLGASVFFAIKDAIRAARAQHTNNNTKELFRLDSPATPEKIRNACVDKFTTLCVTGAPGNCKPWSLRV

SMILES | intrinsic fluorescence quenching (Stern-Volmer), excitation 280 nm [1] | IC50 [2] [mM]
CC(=O)c1c(O)cccc1O [2,6-Dihydroxyacetophenone] | fluorescence quenching mechanism of DHAP, 4-HPEA and HBA for XOD were a single type | 1.24 ± 0.02
O=Cc1ccc(O)cc1 [4-Hydroxybenzaldehyde] | fluorescence quenching mechanism of DHAP, 4-HPEA and HBA for XOD were a single type | 0.00267 ± 0.0009
OCCc1ccc(O)cc1 [4-Hydroxyphenethyl alcohol] | fluorescence quenching mechanism of DHAP, 4-HPEA and HBA for XOD were a single type | 24.5 ± 0.8
